In ChEMBL document CHEMBL5500393, “Discovery and Optimization of Novel SaFabI Inhibitors as Specific Therapeutic Agents for MRSA Infection” (J Med Chem, 2024):
≈ marks a conversion by molar mass, not a printed value.

Experiments:
[1] = tested on: Pseudomonas aeruginosa; experiment: Antimicrobial activity against Pseudomonas aeruginosa PAO1 measured after 24 hrs by CLSI protocol based microdilution method; format: functional
[2] = tested on: Escherichia coli; experiment: Antimicrobial activity against Escherichia coli ATCC25922 measured after 24 hrs by CLSI protocol based microdilution method; format: functional
[3] = tested on: Staphylococcus aureus; experiment: Antimicrobial activity against […] Staphylococcus aureus USA300 measured after 24 hrs by CLSI protocol based microdilution method; format: functional
[4] = tested on: Staphylococcus aureus; experiment: Antimicrobial activity against […] Staphylococcus aureus ATCC43300 measured after 24 hrs by CLSI protocol based microdilution method; format: functional
[5] = molecular target: T1, Enoyl-[acyl-carrier-protein] reductase [NADPH] FabI (Staphylococcus aureus) (UniProt Q6GI75); experiment: Inhibition of N-terminal his 6 tagged Staphylococcus aureus Fabi (1 to […] residues) expressed in Escherichia coli BL21 at 10 uM incubated for 30 mins in presence of NADPH by fluorescence based microplate reader analysis relative to control
T1 sequence (whole entry): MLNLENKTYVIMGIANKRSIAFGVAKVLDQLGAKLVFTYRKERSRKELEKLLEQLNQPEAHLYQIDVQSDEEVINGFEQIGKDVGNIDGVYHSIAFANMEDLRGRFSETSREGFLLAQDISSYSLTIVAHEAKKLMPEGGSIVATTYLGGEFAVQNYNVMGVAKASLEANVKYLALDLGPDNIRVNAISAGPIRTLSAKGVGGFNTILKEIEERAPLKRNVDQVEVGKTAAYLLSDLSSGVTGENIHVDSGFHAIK

[6] = tested on: Staphylococcus aureus; experiment: Antimicrobial activity against methicillin-susceptible Staphylococcus aureus ATCC29213 measured after 24 hrs by CLSI protocol based microdilution method; format: functional
[7] = tested on: Staphylococcus aureus; experiment: Antimicrobial activity against methicillin-susceptible Staphylococcus aureus ATCC25923 measured after 24 hrs by CLSI protocol based microdilution method; format: functional
[8] = tested on: Acinetobacter baumannii; experiment: Antimicrobial activity against Acinetobacter baumannii ATCC19606 measured after 24 hrs by CLSI protocol based microdilution method; format: functional
[9] = tested on: Enterococcus faecium; experiment: Antimicrobial activity against Enterococcus faecium ATCC19434 measured after 24 hrs by CLSI protocol based microdilution method; format: functional
[10] = tested on: Staphylococcus aureus; experiment: Antimicrobial activity against […] Staphylococcus aureus NRS271 measured after 24 hrs by CLSI protocol based microdilution method; format: functional
[11] = tested on: Staphylococcus aureus; experiment: Antimicrobial activity against […] Staphylococcus aureus ATCC33591 measured after 24 hrs by CLSI protocol based microdilution method; format: functional
[12] = tested on: Enterococcus faecalis; experiment: Antimicrobial activity against Enterococcus faecalis ATCC29212 measured after 24 hrs by CLSI protocol based microdilution method; format: functional
[13] = molecular target: T2, Enoyl-[acyl-carrier-protein] reductase [NADPH] FabI (Staphylococcus aureus, UniProt Q6GI75); experiment: Inhibition of N-terminal his 6 tagged Staphylococcus aureus Fabi (1 to […] residues) expressed in Escherichia coli BL21 incubated for 30 mins in presence of NADPH by fluorescence based microplate reader analysis
T2 sequence (Q6GI75 whole entry): T1 sequence (whole entry)

[14] = molecular target: T1, Enoyl-[acyl-carrier-protein] reductase [NADPH] FabI (Staphylococcus aureus); experiment: Inhibition of N-terminal his 6 tagged Staphylococcus aureus Fabi (1 to […] residues) expressed in Escherichia coli BL21 at 1 uM incubated for 30 mins in presence of NADPH by fluorescence based microplate reader analysis relative to control
[15] = tested on: Candida albicans; experiment: Antimicrobial activity against Candida albicans SC5314 measured after 48 hrs by CLSI protocol based microdilution method; format: functional

Structure (SMILES) | MIC [1] [µg/mL] | MIC [2] [µg/mL] | MIC [3] [µg/mL] | MIC [4] [µg/mL] | inhibition [5] [%] | MIC [6] [µg/mL] | MIC [7] [µg/mL] | MIC [8] [µg/mL] | MIC [9] [µg/mL] | MIC [10] [µg/mL] | MIC [11] [µg/mL] | MIC [12] [µg/mL] | IC50 [13] [nM] | inhibition [14] [%] | MIC [15] [µg/mL]
Cn1c(C2CC(=O)N(c3cccc4ccccc34)C2)nc2ccccc21 (stereo not given) | > 32 | > 32 | 8 (≈ 23.4 µM) | 16 (≈ 46.9 µM) | 96.9 | 8 (≈ 23.4 µM) | 8 (≈ 23.4 µM) | > 32 | > 32 | 16 (≈ 46.9 µM) | 8 (≈ 23.4 µM) | > 32 | 1080 | 48.4 | > 32
Cc1cccc(N2CC(c3nc4ccccc4n3C)CC2=O)c1 (stereo not given) | > 32 | > 32 | > 32 | > 32 | 67.7 | > 32 | > 32 | > 32 | > 32 | > 32 | > 32 | > 32 | 5700 | 4.9 | > 32
Cc1c(Br)cccc1N1CC(c2nc3ccccc3n2C(C)C)CC1=O (stereo not given) | > 32 | > 32 | 16 (≈ 38.8 µM) | 16 (≈ 38.8 µM) | 87 | 8 (≈ 19.4 µM) | 16 (≈ 38.8 µM) | > 32 | > 32 | 32 (≈ 77.6 µM) | 16 (≈ 38.8 µM) | > 32 | 1730 | 21.1 | > 32
Cc1c(N2CC(c3nc4ccccc4n3C)CC2=O)cccc1[N+](=O)[O-] (stereo not given) | > 32 | > 32 | 16 (≈ 45.7 µM) | 16 (≈ 45.7 µM) | 98 | 8 (≈ 22.8 µM) | 16 (≈ 45.7 µM) | > 32 | > 32 | 32 (≈ 91.3 µM) | 16 (≈ 45.7 µM) | > 32 | 1520 | 42.8 | > 32
Cc1ccccc1N1CC(c2nc3ccccc3n2C)CC1=O (stereo not given) | > 32 | > 32 | 32 (≈ 105 µM) | 32 (≈ 105 µM) | 85.2 | 16 (≈ 52.4 µM) | 32 (≈ 105 µM) | > 32 | > 32 | 16 (≈ 52.4 µM) | 16 (≈ 52.4 µM) | > 32 | 2410 | 18.3 | > 32
Cc1c(O)cccc1N1CC(c2nc3ccccc3n2C)CC1=O (stereo not given) | > 32 | > 32 | 8 (≈ 24.9 µM) | 8 (≈ 24.9 µM) | 96.9 | 8 (≈ 24.9 µM) | 8 (≈ 24.9 µM) | > 32 | > 32 | 8 (≈ 24.9 µM) | 4 (≈ 12.4 µM) | > 32 | 650 | 61.7 | > 32
Cn1c(C2CC(=O)N(c3cccc(F)c3Br)C2)nc2ccccc21 (stereo not given) | > 32 | > 32 | 32 (≈ 82.4 µM) | > 32 | 83 | 32 (≈ 82.4 µM) | > 32 | > 32 | > 32 | > 32 | 16 (≈ 41.2 µM) | > 32 | 2730 | 23.5 | > 32
Cc1c(N2CC(c3nc4ccccc4n3C)CC2=O)cccc1C(F)(F)F (stereo not given) | > 32 | > 32 | 8 (≈ 21.4 µM) | 4 (≈ 10.7 µM) | 93.9 | 4 (≈ 10.7 µM) | 8 (≈ 21.4 µM) | > 32 | > 32 | 8 (≈ 21.4 µM) | 4 (≈ 10.7 µM) | > 32 | 632 | 66.1 | > 32
Cn1c(C2CC(=O)N(c3cccc(F)c3F)C2)nc2ccccc21 (stereo not given) | > 32 | > 32 | 16 (≈ 48.9 µM) | 32 (≈ 97.8 µM) | 91.8 | 16 (≈ 48.9 µM) | 32 (≈ 97.8 µM) | > 32 | > 32 | 32 (≈ 97.8 µM) | 16 (≈ 48.9 µM) | > 32 | 227 | 35.3 | > 32
Cc1c(Br)cccc1N1CC(c2nc3cc(F)c(F)cc3n2C)CC1=O (stereo not given) | > 32 | > 32 | > 32 | > 32 | 66.7 | 32 (≈ 76.1 µM) | > 32 | > 32 | > 32 | > 32 | > 32 | > 32 | 5290 | 3.2 | > 32
Cn1c(C2CC(=O)N(c3ccc(O)c(O)c3)C2)nc2ccccc21 (stereo not given) | > 32 | > 32 | > 32 | > 32 | 70.4 | > 32 | > 32 | > 32 | > 32 | > 32 | > 32 | > 32 | 5190 | 10.7 | > 32
Cn1c(C2CC(=O)N(c3cccc(Cl)c3Br)C2)nc2ccccc21 (stereo not given) | > 32 | > 32 | 6 (≈ 14.8 µM) | 16 (≈ 39.5 µM) | 95.8 | 8 (≈ 19.8 µM) | 16 (≈ 39.5 µM) | > 32 | > 32 | 16 (≈ 39.5 µM) | 8 (≈ 19.8 µM) | > 32 | 230 | 46 | > 32
COc1ccc(N2CC(c3nc4ccccc4n3C)CC2=O)cc1Br (stereo not given) | > 32 | > 32 | > 32 | > 32 | 72.3 | > 32 | > 32 | > 32 | > 32 | > 32 | > 32 | > 32 | 3020 | 9.4 | > 32
